Experimental data reported in patent publication US8952024B2, “Herbicidal pyrimidone derivatives” (E I du Pont de Nemours and Company, priority 2009, dated 2015).

How the values were obtained:
Format in all cases: in vivo
[1] = test system: blackgrass (Alopecurus myosuroides); test: Test B pre-/postemergence plant response; details: for Plant response rating, Blackgrass: Postemergence
Procedure, shortened: (§1)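 Compound in solvent + surfactant applied pre-em (loam/sand) or post-em (plants 2–18 cm, peat medium); greenhouse hold 13–15 days; visual 0–100 control score.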

soybean (Glycine max) = test: Test B pre-/postemergence plant response; details: for Plant response rating, Soybean: Postemergence
Procedure, shortened: as §1

[2] = test system: lambsquarters (Chenopodium album); test: Test B pre-/postemergence plant response; details: for Plant response rating, Lambsquarters: Postemergence
Procedure, shortened: as §1

[3] = test system: Surinam grass (Brachiaria decumbens); test: Test B pre-/postemergence plant response; details: for Plant response rating, Surinam Grass: Postemergence
Procedure, shortened: as §1

[4] = test system: large crabgrass (Digitaria sanguinalis); test: Test B pre-/postemergence plant response; details: for Plant response rating, Crabgrass, Large: Postemergence
Procedure, shortened: as §1

[5] = test system: johnsongrass (Sorghum halepense); test: Test B pre-/postemergence plant response; details: for Plant response rating, Johnsongrass: Postemergence
Procedure, shortened: as §1

[6] = test system: velvetleaf (Abutilon theophrasti); test: Test B pre-/postemergence plant response; details: for Plant response rating, Velvetleaf: Postemergence
Procedure, shortened: as §1

[7] = test system: woolly cupgrass (Eriochloa villosa); test: Test B pre-/postemergence plant response; details: for Plant response rating, Cupgrass, Woolly: Postemergence
Procedure, shortened: as §1

wild oat (Avena fatua) = test: Test B pre-/postemergence plant response; details: for Plant response rating, Oat, Wild: Postemergence
Procedure, shortened: as §1

corn (Zea mays) = test: Test B pre-/postemergence plant response; details: for Plant response rating, Corn: Postemergence
Procedure, shortened: as §1

[8] = test system: bermudagrass (Cynodon dactylon); test: Test B pre-/postemergence plant response; details: for Plant response rating, Bermudagrass: Postemergence
Procedure, shortened: as §1

[9] = test system: ragweed (common ragweed, Ambrosia elatior); test: Test B pre-/postemergence plant response; details: for Plant response rating, Ragweed: Postemergence
Procedure, shortened: as §1

[10] = test system: Italian ryegrass (Lolium multiflorum); test: Test B pre-/postemergence plant response; details: for Plant response rating, Ryegrass, Italian: Postemergence
Procedure, shortened: as §1

[11] = test system: yellow nutsedge (Cyperus esculentus); test: Test B pre-/postemergence plant response; details: for Plant response rating, Nutsedge, Yellow: Postemergence
Procedure, shortened: as §1

[12] = test system: winter barley (Hordeum vulgare); test: Test B postemergence plant response; details: for Plant response rating, Barley: Postemergence
Procedure, shortened: (§2)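 Plants at the 1- to 4-leaf stage (2 to 18 cm tall), grown in pots of peat moss/vermiculite medium with wetting agent and starter nutrients, received postemergence applications of test chemicals. After 13 to 15 days in a greenhouse, injury was rated visually against untreated controls on a 0 (no effect) to 100 (complete control) scale.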

[13] = test system: windgrass (Apera spica-venti); test: Test B postemergence plant response; details: for Plant response rating, Windgrass: Postemergence
Procedure, shortened: as §2

[14] = test system: canarygrass (Phalaris minor); test: Test B postemergence plant response; details: for Plant response rating, Canarygrass: Postemergence
Procedure, shortened: as §2

[15] = test system: chickweed (Stellaria media); test: Test B postemergence plant response; details: for Plant response rating, Chickweed: Postemergence
Procedure, shortened: as §2

[16] = 62 g ai/ha, postemergence, 0 is no effect, 100 is complete control, 13 to 15 days
[17] = 31 g ai/ha, 0 to 100 scale (0 no effect, 100 complete control)
[18] = 125 g ai/ha, scale 0 to 100 (0 no effect, 100 complete control)
[19] = 250 g ai/ha, scale 0 to 100 (0 no effect, 100 complete control), 13 to 15 days

With `CCCn1c(-c2cccc(F)c2)ncc(C(=O)C2=C(O)CCCC2=O)c1=O` [Compound 127] the “Blackgrass plant response rating (0 to 100 scale)” value [1, 16] was 20, the “Plant response rating, Blackgrass” value [1, 17] was 5 and the “Plant response rating, Blackgrass” value [1, 18] was 25. For the same molecule, the “Plant response rating, Blackgrass” value [1, 19] was 40, the “Soybean plant response rating (0 to 100 scale)” value (soybean (Glycine max); [16]) was 98 and the “Plant response rating, Soybean” value (soybean (Glycine max); [17]) was 95. For the same molecule, the “Plant response rating, Soybean” value (soybean (Glycine max); [18]) was 98, the “Plant response rating, Soybean” value (soybean (Glycine max); [19]) was 98 and the “Lambsquarters plant response rating (0 to 100 scale)” value [2, 16] was 85. For the same molecule, the “Plant response rating, Lambsquarters” value [2, 17] was 75, the “Plant response rating, Lambsquarters” value [2, 18] was 90 and the “Plant response rating, Lambsquarters” value [2, 19] was 95. For the same molecule, the “Surinam Grass plant response rating (0 to 100 scale)” value [3, 16] was 75, the “Plant response rating, Surinam Grass” value [3, 17] was 75 and the “Plant response rating, Surinam Grass” value [3, 18] was 85. The “Plant response rating, Surinam Grass” value [3, 19] was 90, the “Crabgrass, Large plant response rating (0 to 100 scale)” value [4, 16] was 85 and the “Plant response rating, Crabgrass, Large” value [4, 17] was 80. For the same molecule, the “Plant response rating, Crabgrass, Large” value [4, 18] was 90, the “Plant response rating, Crabgrass, Large” value [4, 19] was 95 and the “Johnsongrass plant response rating (0 to 100 scale)” value [5, 16] was 70. For the same molecule, the “Plant response rating, Johnsongrass” value [5, 17] was 65, the “Plant response rating, Johnsongrass” value [5, 18] was 80 and the “Plant response rating, Johnsongrass” value [5, 19] was 95. The “Velvetleaf plant response rating (0 to 100 scale)” value [6, 16] was 95, the “Plant response rating, Velvetleaf” value [6, 17] was 90 and the “Plant response rating, Velvetleaf” value [6, 18] was 100. The “Plant response rating, Velvetleaf” value [6, 19] was 100, the “Cupgrass, Woolly plant response rating (0 to 100 scale)” value [7, 16] was 75 and the “Plant response rating, Cupgrass, Woolly” value [7, 17] was 75. For the same molecule, the “Plant response rating, Cupgrass, Woolly” value [7, 18] was 85, the “Plant response rating, Cupgrass, Woolly” value [7, 19] was 85 and the “Oat, Wild plant response rating (0 to 100 scale)” value (wild oat (Avena fatua); [16]) was 10. The “Plant response rating, Oat, Wild” value (wild oat (Avena fatua); [17]) was 5, the “Plant response rating, Oat, Wild” value (wild oat (Avena fatua); [18]) was 25 and the “Plant response rating, Oat, Wild” value (wild oat (Avena fatua); [19]) was 60. The “Corn plant response rating (0 to 100 scale)” value (corn (Zea mays); [16]) was 25, the “Plant response rating, Corn” value (corn (Zea mays); [17]) was 5 and the “Plant response rating, Corn” value (corn (Zea mays); [18]) was 25. For the same molecule, the “Plant response rating, Corn” value (corn (Zea mays); [19]) was 75, the “Bermudagrass plant response rating (0 to 100 scale)” value [8, 16] was 95 and the “Plant response rating, Bermudagrass” value [8, 17] was 95. The “Plant response rating, Bermudagrass” value [8, 18] was 98, the “Plant response rating, Bermudagrass” value [8, 19] was 98 and the “Ragweed plant response rating (0 to 100 scale)” value [9, 16] was 85. The “Plant response rating, Ragweed” value [9, 17] was 70, the “Plant response rating, Ragweed” value [9, 18] was 98 and the “Plant response rating, Ragweed” value [9, 19] was 98. For the same molecule, the “Ryegrass, Italian plant response rating (0 to 100 scale)” value [10, 16] was 5, the “Plant response rating, Ryegrass, Italian” value [10, 17] was 0 and the “Plant response rating, Ryegrass, Italian” value [10, 18] was 5. The “Plant response rating, Ryegrass, Italian” value [10, 19] was 30, the “Nutsedge, Yellow plant response rating (0 to 100 scale)” value [11, 16] was 70 and the “Plant response rating, Nutsedge, Yellow” value [11, 17] was 65. The “Plant response rating, Nutsedge, Yellow” value [11, 18] was 75, the “Plant response rating, Nutsedge, Yellow” value [11, 19] was 80 and the “Barley plant response rating (0 to 100 scale)” value [12, 16] was 20. For the same molecule, the “Plant response rating, Barley” value [12, 17] was 0, the “Plant response rating, Barley” value [12, 18] was 35 and the “Plant response rating, Barley” value [12, 19] was 60. The “Windgrass plant response rating (0 to 100 scale)” value [13, 16] was 50, the “Plant response rating, Windgrass” value [13, 17] was 25 and the “Plant response rating, Windgrass” value [13, 18] was 55. The “Plant response rating, Windgrass” value [13, 19] was 70, the “Canarygrass plant response rating (0 to 100 scale)” value [14, 16] was 10 and the “Plant response rating, Canarygrass” value [14, 17] was 5. The “Plant response rating, Canarygrass” value [14, 18] was 35, the “Plant response rating, Canarygrass” value [14, 19] was 60 and the “Chickweed plant response rating (0 to 100 scale)” value [15, 16] was 75. The “Plant response rating, Chickweed” value [15, 17] was 65, the “Plant response rating, Chickweed” value [15, 18] was 98 and the “Plant response rating, Chickweed” value [15, 19] was 98.
